These results are taken from PubChem BioAssay (NCI).

Where “and” joins values, the source holds several entries; their conditions need not be identical. Identical values can stand only once.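 Compound exposure: 48 hours, 5 concentrations, 96-well plates. At the GI50, growth is halved. TGI marks complete inhibition of growth.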

Test systems include CAKI-1 renal; COLO 205 colon; NCI-H23 lung; NCI/ADR-RES ovarian; OVCAR-3 ovarian; SK-MEL-2 melanoma; SK-MEL-5 melanoma; SN12C renal; SNB-75 CNS; U251 CNS.
What all share (assay): NCI-60 cell line screen, 48 h

Consider `COc1ccc(-c2c(N)noc2-c2cc(OC)c3c(c2)OCCO3)cc1`, for which the GI50 in the test on CAKI-1 renal is below 0.01 µM; with COLO 205 colon it was below 0.01 µM; in the test with NCI-H23 lung, below 0.014 µM; in the test on NCI/ADR-RES ovarian, below 0.01 µM; in the test on OVCAR-3 ovarian it was below 0.01 µM; in the test with SK-MEL-2 melanoma, below 0.01 µM. The GI50 is below 0.01 µM in the test with SK-MEL-5 melanoma, 0.0438 µM in the test with SN12C renal, below 0.01 µM in the test on SNB-75 CNS and below 0.0119 µM in the test on U251 CNS. For the same molecule, the TGI is 34.1 µM in the test with CAKI-1 renal; 0.0398 µM with COLO 205 colon; 0.0226 µM in the test on NCI/ADR-RES ovarian; below 0.0126 µM in the test on OVCAR-3 ovarian; 67.5 µM in the test with SK-MEL-2 melanoma; 0.176 µM in the test on SK-MEL-5 melanoma. Besides, the TGI is above 100 µM in the test with SN12C renal and 39 µM with SNB-75 CNS.

Regarding `CN1CC[C@H](c2c(O)cc(O)c3c(=O)cc(-c4ccccc4Cl)oc23)[C@H](O)C1`, the TGI was above 10 µM in the test with CAKI-1 renal; 0.209 µM with COLO 205 colon; 0.609 µM in the test with NCI-H23 lung; above 10 µM in the test with NCI/ADR-RES ovarian; above 10 µM in the test with OVCAR-3 ovarian; 0.26 µM with SK-MEL-2 melanoma. Also, the TGI in the test on SK-MEL-5 melanoma was 0.159 µM; with SN12C renal it was above 10 µM; in the test on SNB-75 CNS it was 0.155 µM; in the test on U251 CNS, above 10 µM. The GI50 in the test with COLO 205 colon was 0.0433 µM; with NCI-H23 lung it was 0.0793 µM; in the test with NCI/ADR-RES ovarian, 0.116 µM; with OVCAR-3 ovarian, 0.0546 µM; with SK-MEL-2 melanoma, 0.0668 µM; in the test with SK-MEL-5 melanoma, 0.052 µM. The figures for the GI50 in the test with SN12C renal and in the test on SNB-75 CNS were 0.0703 µM and 0.053 µM, respectively.

Turning to `COc1ccc(C2NC(=S)NC3=C2CCOc2c3ccc3ccccc23)cc1` (stereo unspecified), the GI50 in the test with CAKI-1 renal was above 100 µM; in the test on COLO 205 colon, 53.8 µM; in the test on NCI-H23 lung it was above 100 µM; with NCI/ADR-RES ovarian, 32.6 µM; in the test on OVCAR-3 ovarian, 51.5 µM; in the test with SK-MEL-2 melanoma, above 100 µM. The GI50 in the test on SK-MEL-5 melanoma was 18.2 µM; with SN12C renal it was above 100 µM; in the test with SNB-75 CNS, 60.7 µM; in the test with U251 CNS it was above 100 µM. The TGI with CAKI-1 renal, with COLO 205 colon, in the test on NCI-H23 lung, in the test on NCI/ADR-RES ovarian, with OVCAR-3 ovarian and with SK-MEL-2 melanoma was above 100 µM in each case. In addition, the TGI with SK-MEL-5 melanoma, in the test on SN12C renal, in the test with SNB-75 CNS and in the test on U251 CNS was above 100 µM each time.

In the case of `Cn1c(=O)c2c(nc(N/N=C/c3ccccc3C(=O)O)n2C)n(C)c1=O`, the TGI with CAKI-1 renal, in the test with COLO 205 colon, in the test on NCI-H23 lung, in the test with NCI/ADR-RES ovarian, with OVCAR-3 ovarian and with SK-MEL-2 melanoma was above 100 µM each time. Besides, the TGI in the test on SK-MEL-5 melanoma, with SN12C renal, in the test with SNB-75 CNS and with U251 CNS was above 100 µM throughout.

Regarding `NC(=O)/C(=C/n1cnc(-c2cc(C(F)(F)F)cc(C(F)(F)F)c2)n1)c1cncnc1`, the GI50 with CAKI-1 renal is 0.275 µM; in the test with COLO 205 colon it was 0.124 µM; in the test with NCI-H23 lung it was 0.307 µM; in the test on NCI/ADR-RES ovarian, 0.517 µM; with OVCAR-3 ovarian it was 0.154 µM; in the test with SK-MEL-2 melanoma it was 0.353 µM. In addition, the GI50 was 1.13 µM in the test on SK-MEL-5 melanoma, 0.814 µM in the test on SN12C renal, 0.454 µM with SNB-75 CNS and 0.301 µM in the test with U251 CNS. The TGI in the test on CAKI-1 renal is 14.1 µM; with COLO 205 colon, 11.5 µM; in the test with NCI-H23 lung, 9.18 µM; in the test with NCI/ADR-RES ovarian, 23.9 µM; with OVCAR-3 ovarian, 3.32 µM; with SK-MEL-2 melanoma, 5.75 µM. Further, the TGI with SK-MEL-5 melanoma came out at 10.2 µM; in the test on SN12C renal, 12.7 µM; in the test with SNB-75 CNS, 5.48 µM; with U251 CNS, 12.3 µM.

In the case of `NCCCN=c1ccc2c3c1c(O)c1c(O)ccc(=O)c1c3[nH]n2CCNCCO`, the GI50 in the test on CAKI-1 renal is 1.1 µM and 0.528 µM; in the test with COLO 205 colon, 1.61 µM; in the test with NCI-H23 lung, 1.06 µM; in the test on NCI/ADR-RES ovarian, 20.1 µM; with OVCAR-3 ovarian, 4.18 µM; in the test with SK-MEL-2 melanoma, 3.28 µM and 1.08 µM. Besides, the GI50 in the test on SK-MEL-5 melanoma was 0.706 µM; in the test with SN12C renal, 0.413 µM and 0.391 µM; with SNB-75 CNS, 0.423 µM; with U251 CNS, 0.606 µM and 0.485 µM. Also, the TGI in the test with CAKI-1 renal was 11.2 µM and 3.84 µM; in the test on COLO 205 colon, 5.91 µM and 6.96 µM; in the test on NCI-H23 lung, 5.66 µM and 8.54 µM; in the test with NCI/ADR-RES ovarian, 25 µM and > 236 µM; in the test on OVCAR-3 ovarian it was 17.4 µM and 22.5 µM; with SK-MEL-2 melanoma it was 8.18 µM and 4.08 µM. Moreover, the TGI in the test on SK-MEL-5 melanoma is 3.61 µM and 4.11 µM; in the test on SN12C renal, 6.15 µM and 10.2 µM; with SNB-75 CNS, 5.14 µM and 4.69 µM; in the test on U251 CNS, 5.61 µM and 27.7 µM.

As for `C[As](C)SC1OCC(O)C(O)C1O` (stereo unspecified), the GI50 is 0.0514 µM with CAKI-1 renal; 0.747 µM in the test with COLO 205 colon; 0.281 µM in the test on NCI-H23 lung; 0.138 µM with NCI/ADR-RES ovarian; 0.081 µM in the test on OVCAR-3 ovarian; 0.58 µM in the test on SK-MEL-2 melanoma. Besides, the GI50 is 0.166 µM in the test with SK-MEL-5 melanoma, 0.226 µM in the test on SN12C renal, 0.805 µM in the test on SNB-75 CNS and 0.46 µM with U251 CNS. Also, the TGI in the test with CAKI-1 renal was 0.273 µM; in the test with COLO 205 colon, 3.37 µM; in the test with NCI-H23 lung, 1.76 µM; in the test on NCI/ADR-RES ovarian, 0.602 µM; with OVCAR-3 ovarian it was 0.412 µM; in the test with SK-MEL-2 melanoma, 2.53 µM. Further, the TGI with SK-MEL-5 melanoma was 0.382 µM; in the test on SN12C renal, 0.868 µM; in the test with SNB-75 CNS, 2.36 µM; in the test on U251 CNS, 1.71 µM.

As for `CCOC(=O)[C@@H]1CSC(CC)=C(C(=O)O)N1`, the GI50 in the test with CAKI-1 renal, in the test on COLO 205 colon, with NCI-H23 lung, with NCI/ADR-RES ovarian, with OVCAR-3 ovarian and in the test with SK-MEL-2 melanoma was above 100 µM in each case. Moreover, the GI50 with SK-MEL-5 melanoma, in the test with SN12C renal, in the test with SNB-75 CNS and in the test with U251 CNS was above 100 µM in each case. Besides, the TGI with CAKI-1 renal, in the test on COLO 205 colon, in the test with NCI-H23 lung, in the test with NCI/ADR-RES ovarian, with OVCAR-3 ovarian and in the test with SK-MEL-2 melanoma was above 100 µM in each case. Besides, the TGI with SK-MEL-5 melanoma, in the test on SN12C renal, in the test with SNB-75 CNS and in the test with U251 CNS was above 100 µM each time.
